Laboratory results taken from a melting point compilation (Tetko et al.; mined from patent text by program, amines drawn as free bases though some values may be those of a salt).
Residues, ends and D or L forms follow the SMILES beside them. *: point of attachment. Cbz = O=C(OCc1ccccc1)*

Row | melting point [°C] | SMILES
1 | 111 to 112 | Cc1oc(-c2ccccc2)nc1COc1ccc(CON=C(CCCC(C)(C)C(=O)O)c2ccccc2)cc1
2 | 103 to 104 | CN(C)C(=O)c1c(-c2ccc(F)cc2)ccc2ccccc12
3 | 364 to 367 | O=C1CC(c2cccc(O)c2)=Nc2ccc(N3CCCC3)cc21
4 | 84 to 85 | CO[C@@H]1[C@H](O)[C@@H](CO)O[C@H]1n1cnc2c(N[C@H](C)Cc3ccc(Cl)s3)ncnc21
5 | 239 to 240 | CC(C)(C)OC(=O)c1ncn2c1cc(C(=O)N1CCNCC1)c1cc(Cl)ccc12
6 | 142 | OC1CCCC2C3CCCCCCC3C12 (centres undefined)
7 | 165 | Cc1cc2nc(C)c(CCCl)c(=O)n2o1
8 | 139 to 141 | COc1ccccc1N1CCN(CCCNC(=O)c2cccc3c(=O)c(C)c(C4CC4)oc23)CC1
9 | 50 to 55 | [N-]=[N+]=NCc1cc(Cl)c(C(=O)c2ccc(Cl)cc2)c(Cl)c1
10 | 139 to 141 | O=C1c2ccccc2-c2c1c1ccccc1c(=O)n2CCCCCCO
11 | > 300 | Cc1nc(N)nc(N)c1N1CCN(c2ccc(C#N)cc2)CC1
12 | 92 to 94 | COC(=O)CC1CC(c2ccc(C#N)cc2F)=NO1 (centres undefined)
13 | 161 to 162 | CC(C)n1nc(-c2c(OC3CCC3)nc(N)nc2-c2ccccc2)ccc1=O
14 | 154 to 155 | O=Cc1cc(-c2ccc(O)cc2)c2occc2c1
15 | 230 to 231 | CN1CCC(NC(=O)C2c3ccccc3NC(=O)c3ccccc32)CC1 (centres undefined)
16 | 115 to 116 | COC(=O)[C@H](Cc1ccccc1)NC(=O)c1ccc([N+](=O)[O-])cc1
17 | 136 to 141 | COC(=O)c1ccc(-c2cccc([N+](=O)[O-])c2)cc1
18 | 179 to 181 | CNC(=NC#N)NCCSCc1csc(NC(N)=NC(=O)c2ccccc2)n1
19 | 176 to 179 | C#Cc1cn(C2CC(O)C(CO)O2)c(=O)n(C(=O)c2ccc(C)cc2)c1=O (centres undefined)
20 | 231 to 232 | Cc1cc(F)ccc1-c1nc(NC2CCOCC2)nc2c1ccc(=O)n2-c1c(F)cccc1F
21 | 165 to 166 | COc1cc(C(=O)N2Cc3ccc(C(=O)NCc4cccc(C)c4)n3Cc3ccccc32)ccc1-c1ccccc1C
22 | 113 to 115 | Clc1ccc(-c2ccc(Cl)nc2)cc1
23 | 271 to 272 | O=C(Nc1cccnn1)N1CCN(c2nccc(-c3cc(F)ccc3F)n2)CC1
24 | 120 to 121 | CCOC(=O)C(=O)Nc1ccc(C(F)(F)F)cc1C

Row | melting point [°C] | SMILES
25 | 171 to 173 | COc1cc(OC)cc(-n2c(-c3ccccc3F)cc(=O)c(C)c2-c2ccc(F)cc2F)c1
26 | 170 to 171 | CN(C)C=C1CN=C(c2ccccc2Cl)c2cc(Cl)ccc2C1=O
27 | 200 to 201 | COc1ccccc1Nc1ncc2cc(-c3c(Cl)cccc3Cl)c(=O)n(C)c2n1
28 | 188 to 190 | Cn1c([N+](=O)[O-])cnc1-c1nnc2ccc(N=CN3CCC(O)CC3)nn12
29 | 29 to 31 | CC(C)(C)N=NC(C)(C)SC#N
30 | 129 to 130 | CCOC(=O)c1ccc(-c2nc(COc3ccc(COc4nn(-c5ccccc5)cc4/C=C/P(=O)(OCC)OCC)cc3OC)c(C)o2)o1
31 | 232 to 235 | N#Cc1nc2ccccc2n(-c2ccc(Cl)cc2)c1=O
32 | 140 to 144 | CNC(=O)CC(SC(=O)c1ccccc1)C(CC(C)C)C(=O)NC(Cc1ccc(OC)cc1)C(=O)NC (centres undefined)
33 | 185 to 187 | CCOCc1nc2c(N)nc3cc(-c4cccc(C(=O)N5CCCC5)c4)cnc3c2n1CC(C)(C)O
34 | 94 to 96 | Cc1ccccc1CC(Cc1ccccc1C)C(=O)O
35 | 164 to 166 | COc1ccc(COc2ccc(C(=O)N3CCc4cc(/C=C/CN(C)C)ccc43)cc2)cc1
36 | 285 to 287 | CCOC(=O)c1c[nH]c2c(C#N)c(CCCNC)nn2c1=O
37 | 102 to 115 | Cc1[nH]c(-c2ccccc2)nc1C=O
38 | 158 to 161 | COc1cc2cc(-c3cc(C)c(O)c(C)c3)[nH]c(=O)c2c(OC)c1CN1CCOCC1
39 | 184 to 186 | COc1c(C2CCN(CCCCNC(=O)c3ccc(-c4ccc(Cl)cc4)nc3)CC2)ccc2c1CCCC2
40 | 134 to 136 | CC(=O)Nc1nc(OCc2cccs2)ncc1F
41 | 178 to 180 | CCCCC1c2ccccc2-c2cc(Br)ccc2N1S(=O)(=O)c1ccc(O)cc1 (centres undefined)
42 | 88 to 91 | Cc1cc(-c2c(-c3ccc(S(C)(=O)=O)cc3)cnn(CC(F)(F)F)c2=O)ccc1F
43 | 154 to 160 | C#Cc1ccnc(-c2cc([N+](=O)[O-])c(-c3cc(C#C)ccn3)cc2N)c1
44 | 97 to 100 | S=C(NCc1ccc2c(c1)OCO2)N1CCc2c([nH]c3ccccc23)C1c1ccc2c(c1)OCO2 (centres undefined)
45 | 120 to 122 | CCOC(=O)c1cc([N+](=O)[O-])c(N)nc1C(=O)OCC
46 | 187 to 190 | CCc1nc(C)c2nnc3ccc(F)cc3n12
47 | 91 to 93 | CCCCCCCCCCCCCCCCCCS(=O)c1cc2ccccc2cc1OC(C)=O (centres undefined)
48 | 58.5 to 59.5 | Cc1cccc(C)c1OC(=O)[C@H](C)[C@@H](O)C(C)C

Row | melting point [°C] | SMILES
49 | 71 to 73 | COc1ccc2c(c1)C(=O)C(Cc1nccs1)CO2 (centres undefined)
50 | 103 to 104 | O=C(O)CCc1cnoc1-c1cc(Cl)ccc1Cl
51 | 123 to 125 | CCNC(NC(C)=O)C(=O)NCc1ccccc1 (centres undefined)
52 | 284 | NS(=O)(=O)c1nnc(NC(=O)c2cnn3c(C(F)F)cc(-c4ccc(C(F)(F)F)cc4)nc23)s1
53 | 139 to 140 | COc1ccc(C2=NN(CCCCN3C(=O)c4ccccc4C3=O)C(=O)[C@H]3CC=CC[C@@H]23)cc1OC (relative stereo)
54 | 143 to 145 | CN(C1CCCOc2ccccc21)S(C)(=O)=O (centres undefined)
55 | 64 to 66 | O=Cc1ncc(C(O)C(F)(F)F)s1 (centres undefined)
56 | 70 to 73 | O=C1OC(COc2ccccc2)CN1CCCOc1ccc(CC2SC(=O)N(C(c3ccccc3)(c3ccccc3)c3ccccc3)C2=O)cc1 (centres undefined)
57 | 175 | CCCCc1nc(-c2ccc(N3CCN(C(=O)c4ccccc4C(F)(F)F)CC3)nn2)no1
58 | 139 to 142 | Cc1cccc(C#C[C@@]2(O)CCC[C@@H](NC(=O)c3ccco3)C2)c1
59 | 80 to 83 | CCCCCCCCCCCCCCCCCCOC(=O)C(N)Cc1ccc(O)cc1 (centres undefined)
60 | 273 to 275 | O=C1CCC2(CCC(=O)c3cc([N+](=O)[O-])ccc32)C(=O)N1 (centres undefined)
61 | 168 to 170 | Cc1cccc(C(=O)Nc2ccc(C(=O)N3Cc4cccn4Cc4ccccc43)cc2)c1C
62 | 163 to 164 | COC(=O)c1[nH]c2c(C)ccc(C)c2c1S(C)(=O)=O
63 | 173 to 175 | CCOC(=O)c1cc2c(OCC3CO3)cc(C)cc2[nH]1 (centres undefined)
64 | 187 to 191 | COc1cc(OCC2CC2)c(/C=C/C(=O)c2ccc(C(=O)O)cc2)cc1-c1cccs1
65 | 106 to 108 | COC(=O)c1ccccc1NC(=O)OCC1CCN(CCNS(C)(=O)=O)CC1
66 | 131 | CCOC(=O)c1c(-c2ccc(CBr)cc2)nc2ccccn12
67 | 77 to 78 | CCCCCCCCCCCCCCCCCCOc1cccc(N)c1
68 | 233 | Cc1cc2c(cc1Cl)NC(=O)C2(N)c1ccccc1Cl (centres undefined)
69 | 57 to 59 | CCCCCCCCCCCCOC(=O)COCC(=O)O
70 | 134 to 135 | CCOC(=O)c1cnn2c1c(N1CCN(c3ccccc3)CC1)nc1ccccc12
71 | 149 to 152 | COC(=O)C(Cc1ccc(O)cc1)NC(=O)C(CO)NC(=O)C(Cc1c[nH]c2ccccc12)NC(=O)OCc1ccccc1 (stereo not drawn) (Cbz-Trp-Ser-Tyr-OMe; configuration not given here)
72 | 48 to 58 | CCOC(=O)c1sc(CBr)nc1C

Row | melting point [°C] | SMILES
73 | 128 to 129 | COc1ccc2c(=O)n3cccc3oc2c1
74 | 229 to 231 | O=C(O)CCCCCNC(=O)CCC(=O)Nc1cccc2ccccc12
75 | 130 to 131 | CN1C(=O)CC[C@]2(C)c3ccc(-c4ccccc4[N+](=O)[O-])cc3CC[C@@H]12
76 | 158 to 160 | Clc1ccc(C2CC(n3ccnc3)c3ccccc3N2)cc1 (centres undefined)
77 | 276 | CCOc1cc(-c2cc(C(F)(F)F)n3ncc(C(=O)Nc4nc(C)c(S(=O)(=O)NC(C)(C)CO)s4)c3n2)ccc1C(F)(F)F
78 | 68 to 71 | COC(=O)C(Oc1ccccc1)c1ccc(I)cc1 (centres undefined)
79 | 170 | COc1ccc(-c2c(C#N)c(CNS(=O)(=O)c3c(F)cccc3F)nn2-c2ccc(Cl)cc2Cl)cc1
80 | 130 to 132 | COC(=O)CC(=O)Nc1ccccc1COc1ccc(C(C)=O)c(O)c1
81 | 179 to 180 | COc1cc(C=O)ccc1OCc1nc(-c2cccc([N+](=O)[O-])c2)oc1C
82 | 65 | Cc1c(C(F)(F)C(F)(F)F)oc2c(Br)cccc12
83 | 148 to 150 | N#Cc1ccn(O)c1-c1ccc(Cl)cc1
84 | 46 | CC(C)OC(=O)c1nc(Cl)sc1Cl
85 | 169 to 171 | CS(=O)(=O)Nc1ccc(NC(=O)CN2CCC(Cc3ccc(F)cc3)CC2)cc1
86 | 82 to 85 | CCCc1c(OCCCSc2ccc(CC(=O)OC)c(Cl)c2Cl)ccc(C(C)=O)c1O
87 | 155 to 158 | O=c1[nH]c2ccccc2cc1CN1CC=C(Cc2ccccc2)CC1
88 | 250 to 252 | CCOC(=O)c1cn(CC)c2nc(OC)c(N)cc2c1=O
89 | 98 to 120 | CCCC(=O)OCC(=O)C1(OC(C)=O)CCC2C3CC(C)C4=CC(=O)CCC4(C)C3C(O)CC21C (centres undefined)
90 | 238 to 240 | Cc1nc(-c2ccccc2)cc(=O)[nH]1
91 | 68 to 71 | CC(C)OC1CCC(=O)N1 (centres undefined)
92 | 164 to 167 | Cc1cccc(C(=O)c2ccc(OCCOc3ccc(C(=O)c4cccc(C)c4)cc3)cc2)c1
93 | 30 | OCC=CCOc1nc(F)c(Cl)cc1Cl
94 | 144 to 145 | CC(C)c1cc(CCC(=O)NCc2cccc(NC(=N)c3cccs3)c2)cc(C(C)C)c1O
95 | 298 to 301 | O=C(O)c1ccc(N2C(=O)C(=Cc3ccccc3)SC2=S)cc1
96 | 137 to 138 | CC(Oc1ccc(Cl)cc1Cl)c1ccnc2ncnn12 (centres undefined)

Row | SMILES | melting point [°C]
97 | N#Cc1ccc(O)cc1Cl | 157 to 158
98 | Clc1ccc2c(c1)C(c1ccccc1Cl)=NCc1n[nH]cc1-2 | 142 to 144
99 | COc1ccc(CC(C)NCC(O)c2cccc(F)c2)cc1 (centres undefined) | 85 to 89
